{"source": "patent US9555014B2", "about": "“Therapeutic regimens” (Radius Health, Inc., priority 2010, dated 2017)", "key": {"[1]": {"test_system": "postmenopausal women with frequent, moderate to severe vasomotor symptoms (hot flashes)", "assay": "Phase 2a study: hot flash frequency, severity and composite score", "format": "in vivo, human (postmenopausal women)", "details": "10 mg", "text": "A phase 2a study was undertaken to assess the effect of (R)-6-(2-(ethyl(4-(2-(ethylamino)ethyl)benzyl)amino)-4-methoxyphenyl)-5,6,7,8-tetrahydronaphthalen-2-ol dihydrochloride (referred to as “drug” in tables below) to alleviate hot flashes in postmenopausal women. The study design and objectives are detailed below.\nThis is a randomized, placebo-controlled, double-blind, parallel-group, Phase 2, multi-center, dose-finding study to evaluate the effects of (R)-6-(2-(ethyl(4-(2-(ethylamino)ethyl)benzyl)amino)-4-methoxyphenyl)-5,6,7,8-tetrahydronaphthalen-2-ol dihydrochloride in the treatment of vasomotor symptoms in postmenopausal women.\nA total of 100 eligible patients will be randomized to receive one of 5 blinded treatment regimens. (R)-6-(2-(ethyl(4-(2-(ethylamino)ethyl)benzyl)amino)-4-methoxyphenyl)-5,6,7,8-tetrahydronaphthalen-2-ol dihydrochloride at doses 0, 10, 25, 50 or 100 mg will be dosed for 28-days.\nPatients will document in real time hot flash frequency and severity according to a predetermined scale, in the provided electronic or paper Study Diary. Study Diary entries of hot flash frequency and severity and associated symptoms will be reviewed at each study visit. Serum markers of estrogen effect will be measured at specific study visits while on treatment.\nThe efficacy endpoints assessed are: • Change in frequency of hot flashes over time • Change in severity of hot flashes over time; • Change in composite score of hot flashes over time (frequency×severity)\n(R)-6-(2-(ethyl(4-(2-(ethylamino)ethyl)benzyl)amino)-4-methoxyphenyl)-5,6,7,8-tetrahydronaphthalen-2-ol dihydrochloride was provided by sponsor in capsule form for oral administration. All doses (0, 10, 25, 50 and 100 mg) were provided as identical presentations. Each patient was provided with 2 containers of 28-capsules each at the start of treatment and took one capsule from each container every day for 28-days. Placebo contained the same excipients as active medication, but without (R)-6-(2-(ethyl(4-(2-(ethylamino)ethyl)benzyl)amino)-4-methoxyphenyl)-5,6,7,8-tetrahydronaphthalen-2-ol dihydrochloride. The patients were instructed to take the capsules orally in the fasted state (morning).\nChanges in the efficacy endpoints of frequency, severity, and composite score of hot flashes over time; associated hot flash symptoms (palpitations, insomnia, joint aches, and headaches), PD markers of estrogen effect (FSH, LH, and lipid profile), drug levels, and MRS were to be summarized using descriptive statistics. Frequency, severity, and composite score of hot flashes over time were to be analyzed using repeated measures analysis of variance (ANOVA) with factors for treatment (treatment groups), time (study day) and their interaction. A linear trend test for treatment groups (placebo, and 10, 25, 50, 100 mg doses of drug) and for study day as well as any potential interaction between the two was to be included as part of the analyses by including both dose and time as continuous variables in the ANOVA model. Pair-wise comparisons of change from baseline were to be tested between the placebo group and each drug dose group for each timepoint; the mean difference together with a 95% confidence interval of the difference was to be presented for placebo compared with each active treatment group. Nominal p-values at Week 4 were to be presented. In addition, graphical presentations of mean (±standard error of the mean) and percent group responses over time together with repeated measures ANOVA to assess potential trend in responses over time in each dose group were to be presented. For the associated vasomotor symptoms (palpitations, insomnia, joint aches, and headaches collected in the patient diaries), patient and event frequencies were to be summarized by treatment week and treatment group.\nHot flashes were also scored according to their severity with a mild hot flash scored a “1”, a moderate hot flash scored a “2” and a severe hot flash scored a “3”. […]"}, "[2]": {"test_system": "mammary carcinoma cells (MCF-7)", "assay": "Estrogen-dependent proliferation of MCF-7 cells (preclinical data)", "format": "cell-based", "text": "The results of a phase 2a clinical study assessing the effects of the selective estrogen receptor modulator (SERM) (R)-6-(2-(ethyl(4-(2-(ethylamino)ethyl)benzyl)amino)-4-methoxyphenyl)-5,6,7,8-tetrahydronaphthalen-2-ol on women suffering from hot flushes are reported herein."}}}
{"smiles": "CCNCCc1ccc(CN(CC)c2cc(OC)ccc2[C@@H]2CCc3cc(O)ccc3C2)cc1", "note": "[compound of formula I, (R)-6-(2-(ethyl(4-(2-(ethylamino)ethyl)-benzyl)amino)-4-methoxyphenyl)-5,6,7,8-tetrahydronaphthalen-2-ol]", "values": [{"measurement": "hot flush frequency reduction", "setting": "[1]; cohort with 2 hour postdose plasma concentration 0.43 ng/mL to 0.53 ng/mL", "result": "−75", "unit": "%"}, {"measurement": "hot flush frequency reduction", "setting": "[1]; higher concentration cohort, 2 hour postdose plasma concentration 0.66 ng/mL to 1.34 ng/mL", "result": "−77", "unit": "%"}, {"measurement": "antagonism of estradiol stimulation on MCF-7 cells", "setting": "[2]", "result": "potent antagonist of estradiol stimulation"}, {"measurement": "stimulation of estrogen-dependent proliferation of MCF-7 cells (agonism)", "setting": "[2]; compared with prototypical estrogen agonists (e.g. estradiol)", "result": "does not stimulate estrogen-dependent proliferation"}]}
